Test results: ChEMBL document CHEMBL3885881, “DrugMatrix”

Organism: Rattus norvegicus
Assay: DrugMatrix - Regimen: Daily Repeat
Type: toxicity, organism-based, Sprague-Dawley
Set-up: regimen Daily Repeat, gender Male, age 6-8 weeks
Details: in vivo, po, route oral GAVAGE, vehicle .5 % CMC; for BASOPHIL / EOSINOPHIL / ERYTHROCYTE COUNT / HEMATOCRIT / HEMOGLOBIN / LEUKOCYTE COUNT / LYMPHOCYTE / MEAN CORPUSCULAR HEMOGLOBIN / MEAN CORPUSCULAR HEMOGLOBIN CONCENTRATION / MEAN CORPUSCULAR VOLUME / MONOCYTE / NEUTROPHIL / PLATELET COUNT: tissue Blood; for ALANINE AMINOTRANSFERASE / ALBUMIN / ALKALINE PHOSPHATASE / ASPARTATE AMINOTRANSFERASE / BLOOD UREA NITROGEN / CHLORIDE / CHOLESTEROL / CREATINE PHOSPHOKINASE / CREATININE / GLUCOSE / PHOSPHORUS / POTASSIUM / SODIUM / TOTAL BILIRUBIN / TOTAL PROTEIN: tissue Plasma
[1] = 300 mg/kg, 120 h, dose level Low, time 5 day
[2] = 1500 mg/kg, 72 h, dose level High, time 3 day
[3] = 1500 mg/kg, 120 h, dose level High, time 5 day

SMILES: O=C1CCc2cc(OCCCCc3nnnn3C3CCCCC3)ccc2N1 [CILOSTAZOL]
- BASOPHIL [1]: 1.17%
- EOSINOPHIL [1]: 0.37%
- ERYTHROCYTE COUNT [1]: 7.17 x10E6/uL
- HEMATOCRIT [1]: 46.5%
- HEMOGLOBIN [1]: 14.43 G/DL
- LEUKOCYTE COUNT [1]: 13.79 x10E3/uL
- LYMPHOCYTE [1]: 85.57%
- MEAN CORPUSCULAR HEMOGLOBIN [1]: 20.2 pg
- MEAN CORPUSCULAR HEMOGLOBIN CONCENTRATION [1]: 31.07 G/DL
- MEAN CORPUSCULAR VOLUME [1]: 64.9 fL
- MONOCYTE [1]: 2.3%
- NEUTROPHIL [1]: 9.6%
- PLATELET COUNT [1]: 1545 x10E3/uL
- ALANINE AMINOTRANSFERASE [1]: 41 u/L
- ALBUMIN [1]: 3.77 G/DL
- ALKALINE PHOSPHATASE [1]: 365.67 u/L
- ASPARTATE AMINOTRANSFERASE [1]: 63 u/L
- BLOOD UREA NITROGEN [1]: 14.67 mg/dL
- CHLORIDE [1]: 106.67 MEQ/L
- CHOLESTEROL [1]: 67.33 mg/dL
- CREATINE PHOSPHOKINASE [1]: 135 u/L
- CREATININE [1]: 0.67 mg/dL
- GLUCOSE [1]: 167 mg/dL
- PHOSPHORUS [1]: 12.53 mg/dL
- POTASSIUM [1]: 7.53 MEQ/L
- SODIUM [1]: 151.33 MEQ/L
- TOTAL BILIRUBIN [1]: 0.43 mg/dL
- TOTAL PROTEIN [1]: 6.77 G/DL
- BASOPHIL [2]: 0.53%
- EOSINOPHIL [2]: 0.27%
- ERYTHROCYTE COUNT [2]: 6.95 x10E6/uL
- HEMATOCRIT [2]: 45.23%
- HEMOGLOBIN [2]: 14.2 G/DL
- LEUKOCYTE COUNT [2]: 13.97 x10E3/uL
- LYMPHOCYTE [2]: 82.9%
- MEAN CORPUSCULAR HEMOGLOBIN [2]: 20.43 pg
- MEAN CORPUSCULAR HEMOGLOBIN CONCENTRATION [2]: 31.4 G/DL
- MEAN CORPUSCULAR VOLUME [2]: 65.13 fL
- MONOCYTE [2]: 2.43%
- NEUTROPHIL [2]: 13.1%
- PLATELET COUNT [2]: 1348.33 x10E3/uL
- ALANINE AMINOTRANSFERASE [2]: 34.67 u/L
- ALBUMIN [2]: 3.77 G/DL
- ALKALINE PHOSPHATASE [2]: 340.33 u/L
- ASPARTATE AMINOTRANSFERASE [2]: 60.33 u/L
- BLOOD UREA NITROGEN [2]: 12 mg/dL
- CHLORIDE [2]: 95 MEQ/L
- CHOLESTEROL [2]: 65.33 mg/dL
- CREATINE PHOSPHOKINASE [2]: 141 u/L
- CREATININE [2]: 0.5 mg/dL
- GLUCOSE [2]: 178.33 mg/dL
- PHOSPHORUS [2]: 11.9 mg/dL
- POTASSIUM [2]: 6.77 MEQ/L
- SODIUM [2]: 140.33 MEQ/L
- TOTAL BILIRUBIN [2]: 0.43 mg/dL
- TOTAL PROTEIN [2]: 6.67 G/DL
- BASOPHIL [3]: 0.83%
- EOSINOPHIL [3]: 0.37%
- ERYTHROCYTE COUNT [3]: 7 x10E6/uL
- HEMATOCRIT [3]: 45.1%
- HEMOGLOBIN [3]: 13.87 G/DL
- LEUKOCYTE COUNT [3]: 10.98 x10E3/uL
- LYMPHOCYTE [3]: 80.03%
- MEAN CORPUSCULAR HEMOGLOBIN [3]: 19.8 pg
- MEAN CORPUSCULAR HEMOGLOBIN CONCENTRATION [3]: 30.67 G/DL
- MEAN CORPUSCULAR VOLUME [3]: 64.47 fL
- MONOCYTE [3]: 2.53%
- NEUTROPHIL [3]: 15.27%
- PLATELET COUNT [3]: 1161 x10E3/uL
- ALANINE AMINOTRANSFERASE [3]: 45 u/L
- ALBUMIN [3]: 3.67 G/DL
- ALKALINE PHOSPHATASE [3]: 377 u/L
- ASPARTATE AMINOTRANSFERASE [3]: 66.33 u/L
- BLOOD UREA NITROGEN [3]: 12 mg/dL
- CHLORIDE [3]: 106.67 MEQ/L
- CHOLESTEROL [3]: 66.67 mg/dL
- CREATINE PHOSPHOKINASE [3]: 130 u/L
- CREATININE [3]: 0.6 mg/dL
- GLUCOSE [3]: 184.33 mg/dL
- PHOSPHORUS [3]: 12.83 mg/dL
- POTASSIUM [3]: 7.27 MEQ/L
- SODIUM [3]: 151.33 MEQ/L
- TOTAL BILIRUBIN [3]: 0.4 mg/dL
- TOTAL PROTEIN [3]: 6.6 G/DL
